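Method: 48-hour compound exposure of cells in 96-well plates, five concentrations, linear interpolation of endpoints. At the GI50, growth is halved. TGI: concentration producing complete growth inhibition.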
Columns and labels:
Assay in all cases: inhibition of tumour cell growth, NCI panel, 48 h; in the data active means GI50 below about 0.43 µM; inactive means the rest
RPMI-8226 leukemia = system: RPMI-8226 leukemia
UACC-62 melanoma = system: UACC-62 melanoma
UO-31 renal = system: UO-31 renal
MOLT-4 leukemia = system: MOLT-4 leukemia
DU-145 prostate = system: DU-145 prostate
SK-OV-3 ovarian = system: SK-OV-3 ovarian
MDA-MB-435 = system: MDA-MB-435
HT29 colon = system: HT29 colon
A549 NSCLC = system: A549 NSCLC
CAKI-1 renal = system: CAKI-1 renal
U251 CNS = system: U251 CNS
SF-539 CNS = system: SF-539 CNS
SK-MEL-28 melanoma = system: SK-MEL-28 melanoma
SN12C renal = system: SN12C renal
NCI-H522 lung = system: NCI-H522 lung
MDA-MB-231 breast = system: MDA-MB-231 breast
UACC-257 melanoma = system: UACC-257 melanoma
NCI/ADR-RES ovarian = system: NCI/ADR-RES ovarian
ACHN renal = system: ACHN renal
K-562 leukemia = system: K-562 leukemia
MALME-3M melanoma = system: MALME-3M melanoma
BT-549 breast = system: BT-549 breast
RXF 393 renal = system: RXF 393 renal
HCC-2998 colon = system: HCC-2998 colon
MCF7 breast = system: MCF7 breast
HOP-92 NSCLC = system: HOP-92 NSCLC
EKVX NSCLC = system: EKVX NSCLC
OVCAR-3 ovarian = system: OVCAR-3 ovarian
OVCAR-8 ovarian = system: OVCAR-8 ovarian
IGROV1 ovarian = system: IGROV1 ovarian
OVCAR-5 ovarian = system: OVCAR-5 ovarian
SW-620 colon = system: SW-620 colon
NCI-H226 lung = system: NCI-H226 lung
OVCAR-4 ovarian = system: OVCAR-4 ovarian
HCT-116 colon = system: HCT-116 colon
COLO 205 colon = system: COLO 205 colon
LOX IMVI melanoma = system: LOX IMVI melanoma
HOP-62 NSCLC = system: HOP-62 NSCLC
TK-10 renal = system: TK-10 renal
SNB-75 CNS = system: SNB-75 CNS
NCI-H460 lung = system: NCI-H460 lung
786-0 renal = system: 786-0 renal
SF-268 CNS = system: SF-268 CNS
SNB-19 CNS = system: SNB-19 CNS
M14 melanoma = system: M14 melanoma
NCI-H23 lung = system: NCI-H23 lung
A498 renal = system: A498 renal
HS 578T breast = system: HS 578T breast
SK-MEL-5 melanoma = system: SK-MEL-5 melanoma
HCT-15 colon = system: HCT-15 colon
SF-295 CNS = system: SF-295 CNS
T-47D breast = system: T-47D breast
KM12 colon = system: KM12 colon
PC-3 prostate = system: PC-3 prostate
SK-MEL-2 melanoma = system: SK-MEL-2 melanoma

N#Cc1ccccc1C#C/C=C\C#Cc1cccs1
4.35 µM: TGI (MDA-MB-435)
39 µM: TGI (SK-MEL-5 melanoma)
54.3 µM: TGI (A498 renal)
34.2 µM: TGI (OVCAR-3 ovarian)
92.4 µM: TGI (LOX IMVI melanoma)
56.5 µM: TGI (M14 melanoma)
83.1 µM: TGI (HCT-15 colon)
45.9 µM: TGI (MCF7 breast)
62.5 µM: TGI (TK-10 renal)
51.2 µM: TGI (RPMI-8226 leukemia)
55.7 µM: TGI (SF-268 CNS)
61.4 µM: TGI (HOP-62 NSCLC)
inactive: GI50 (RPMI-8226 leukemia) 11.1 µM | GI50 (UACC-62 melanoma) 12.3 µM | GI50 (UO-31 renal) 46.5 µM | GI50 (MOLT-4 leukemia) 8.19 µM | GI50 (DU-145 prostate) 19.7 µM | GI50 (SK-OV-3 ovarian) 28.9 µM | GI50 (MDA-MB-435) 2.11 µM | GI50 (HT29 colon) 11.8 µM | GI50 (A549 NSCLC) 25 µM | GI50 (CAKI-1 renal) 16 µM | GI50 (U251 CNS) 16.4 µM | GI50 (SF-539 CNS) 14.4 µM | GI50 (SK-MEL-28 melanoma) 14.8 µM | GI50 (SN12C renal) 33 µM | GI50 (NCI-H522 lung) 36.8 µM | GI50 (MDA-MB-231 breast) 26.1 µM | GI50 (UACC-257 melanoma) 32.5 µM | GI50 (NCI/ADR-RES ovarian) 25.4 µM | GI50 (ACHN renal) 32 µM | GI50 (K-562 leukemia) 6.46 µM | GI50 (MALME-3M melanoma) 19.5 µM | GI50 (BT-549 breast) 12.2 µM | GI50 (RXF 393 renal) 14.9 µM | GI50 (HCC-2998 colon) 28.3 µM | GI50 (MCF7 breast) 6.07 µM | GI50 (HOP-92 NSCLC) 25.8 µM | GI50 (EKVX NSCLC) 24.8 µM | GI50 (OVCAR-3 ovarian) 14.1 µM | GI50 (OVCAR-8 ovarian) 30.3 µM | GI50 (IGROV1 ovarian) 42.7 µM | GI50 (OVCAR-5 ovarian) 70.7 µM | GI50 (SW-620 colon) 7.78 µM | GI50 (NCI-H226 lung) 47 µM | GI50 (OVCAR-4 ovarian) 34.9 µM | GI50 (HCT-116 colon) 11.7 µM | GI50 (COLO 205 colon) 14.3 µM | GI50 (LOX IMVI melanoma) 15.7 µM | GI50 (HOP-62 NSCLC) 16.5 µM | GI50 (TK-10 renal) 20.7 µM | GI50 (SNB-75 CNS) 26.2 µM | GI50 (NCI-H460 lung) 21.9 µM | GI50 (786-0 renal) 29.4 µM | GI50 (SF-268 CNS) 19.1 µM | GI50 (SNB-19 CNS) 45.8 µM | GI50 (M14 melanoma) 11.4 µM | GI50 (NCI-H23 lung) 33.2 µM | GI50 (A498 renal) 18.5 µM | GI50 (HS 578T breast) 8.03 µM | GI50 (SK-MEL-5 melanoma) 14.5 µM | GI50 (HCT-15 colon) 14.5 µM | GI50 (SF-295 CNS) 13.8 µM | GI50 (T-47D breast) 12.6 µM | GI50 (KM12 colon) 3.93 µM | GI50 (PC-3 prostate) 28.6 µM | GI50 (SK-MEL-2 melanoma) 62.8 µM
84.1 µM: TGI (786-0 renal)
34.1 µM: TGI (SF-539 CNS)
32.2 µM: TGI (COLO 205 colon)
48.1 µM: TGI (MALME-3M melanoma) | TGI (RXF 393 renal)
75.8 µM: TGI (NCI-H460 lung)
31.9 µM: TGI (SF-295 CNS)
78 µM: TGI (CAKI-1 renal)
94.8 µM: TGI (BT-549 breast)
77.3 µM: TGI (DU-145 prostate)
67.1 µM: TGI (U251 CNS)
16.8 µM: TGI (KM12 colon)
46 µM: TGI (HCT-116 colon)
53.7 µM: TGI (HS 578T breast)
> 100 µM: TGI (UACC-62 melanoma) | TGI (UO-31 renal) | TGI (MOLT-4 leukemia) | TGI (SK-OV-3 ovarian) | TGI (HT29 colon) | TGI (A549 NSCLC) | TGI (SK-MEL-28 melanoma) | TGI (SN12C renal) | TGI (NCI-H522 lung) | TGI (MDA-MB-231 breast) | TGI (UACC-257 melanoma) | TGI (NCI/ADR-RES ovarian) | TGI (ACHN renal) | TGI (K-562 leukemia) | TGI (HCC-2998 colon) | TGI (HOP-92 NSCLC) | TGI (EKVX NSCLC) | TGI (OVCAR-8 ovarian) | TGI (IGROV1 ovarian) | TGI (OVCAR-5 ovarian) | TGI (SW-620 colon) | TGI (NCI-H226 lung) | TGI (OVCAR-4 ovarian) | TGI (SNB-75 CNS) | TGI (SNB-19 CNS) | TGI (NCI-H23 lung) | TGI (T-47D breast) | TGI (PC-3 prostate) | TGI (SK-MEL-2 melanoma)

Source: PubChem BioAssay (NCI)
